Columns and labels:
[1] = tested on: Sixty human tumor cell lines; conditions: NCI Anti-Tumor Screen, several cell types
[2] = tested on: UACC-257; assay: cells; conditions: Homo sapiens, UACC-257, 48 h; for GI50: read-out: Median Growth Inhibitory Concentration (GI50); for CC50: read-out: Median Lethal Concentration (LC50)
[3] = tested on: NCI-H226; assay: cells; conditions: Homo sapiens, NCI-H226, 48 h; for GI50: read-out: Median Growth Inhibitory Concentration (GI50); for CC50: read-out: Median Lethal Concentration (LC50)
[4] = tested on: KM12; assay: cells; conditions: Homo sapiens, KM12, 48 h; for GI50: read-out: Median Growth Inhibitory Concentration (GI50); for CC50: read-out: Median Lethal Concentration (LC50)
[5] = tested on: SF-268; assay: cells; conditions: Homo sapiens, SF-268, 48 h; for GI50: read-out: Median Growth Inhibitory Concentration (GI50); for CC50: read-out: Median Lethal Concentration (LC50)
[6] = tested on: NCI-H460; assay: cells; conditions: Homo sapiens, NCI-H460, 48 h; for GI50: read-out: Median Growth Inhibitory Concentration (GI50); for CC50: read-out: Median Lethal Concentration (LC50)
[7] = tested on: RXF 393; assay: cells; conditions: Homo sapiens, RXF 393, 48 h; for GI50: read-out: Median Growth Inhibitory Concentration (GI50); for CC50: read-out: Median Lethal Concentration (LC50)
[8] = tested on: PC-3; assay: cells; conditions: Homo sapiens, PC-3, 48 h; for GI50: read-out: Median Growth Inhibitory Concentration (GI50); for CC50: read-out: Median Lethal Concentration (LC50)
[9] = tested on: SN12C; assay: cells; conditions: Homo sapiens, 48 h; for GI50: read-out: Median Growth Inhibitory Concentration (GI50); for CC50: read-out: Median Lethal Concentration (LC50)
[10] = tested on: UO-31; assay: cells; conditions: Homo sapiens, UO-31, 48 h; for GI50: read-out: Median Growth Inhibitory Concentration (GI50); for CC50: read-out: Median Lethal Concentration (LC50)
[11] = tested on: ACHN; assay: cells; conditions: Homo sapiens, 48 h; for GI50: read-out: Median Growth Inhibitory Concentration (GI50); for CC50: read-out: Median Lethal Concentration (LC50)
[12] = tested on: T-47D; assay: cells; conditions: Homo sapiens, T47D, 48 h; for GI50: read-out: Median Growth Inhibitory Concentration (GI50); for CC50: read-out: Median Lethal Concentration (LC50)
[13] = tested on: SNB-75; assay: cells; conditions: Homo sapiens, SNB-75, 48 h; for GI50: read-out: Median Growth Inhibitory Concentration (GI50); for CC50: read-out: Median Lethal Concentration (LC50)
[14] = tested on: CAKI-1; assay: cells; conditions: Homo sapiens, CAKI-1, 48 h; for GI50: read-out: Median Growth Inhibitory Concentration (GI50); for CC50: read-out: Median Lethal Concentration (LC50)
[15] = tested on: HCT-15; assay: cells; conditions: Homo sapiens, HCT-15, 48 h; for GI50: read-out: Median Growth Inhibitory Concentration (GI50); for CC50: read-out: Median Lethal Concentration (LC50)
[16] = tested on: NCI-H522; assay: cells; conditions: Homo sapiens, NCI-H522, 48 h; for GI50: read-out: Median Growth Inhibitory Concentration (GI50); for CC50: read-out: Median Lethal Concentration (LC50)
[17] = tested on: SK-MEL-28; assay: cells; conditions: Homo sapiens, SK-MEL-28, 48 h; for GI50: read-out: Median Growth Inhibitory Concentration (GI50); for CC50: read-out: Median Lethal Concentration (LC50)
[18] = tested on: HOP-62; assay: cells; conditions: Homo sapiens, HOP-62, 48 h; for GI50: read-out: Median Growth Inhibitory Concentration (GI50)
[19] = tested on: OVCAR-3; assay: cells; conditions: Homo sapiens, OVCAR-3, 48 h; for GI50: read-out: Median Growth Inhibitory Concentration (GI50); for CC50: read-out: Median Lethal Concentration (LC50)
[20] = tested on: HCC-2998; assay: cells; conditions: Homo sapiens, HCC 2998, 48 h; for GI50: read-out: Median Growth Inhibitory Concentration (GI50); for CC50: read-out: Median Lethal Concentration (LC50)
[21] = tested on: LOX IMVI; assay: cells; conditions: Homo sapiens, 48 h; for GI50: read-out: Median Growth Inhibitory Concentration (GI50)
[22] = tested on: Vascular Endothelial Growth Factor (VEGF) production by human melanoma cell line RPMI-7951; assay: VEGF ELISA, RPMI-7951; conditions: for activity at 5 µM / activity at 20 µM: Homo sapiens, RPMI-7951, 72 h, read-out: VEGF; for VEGF ELISA / VEGF: RPMI-7951; for VEGF ELISA: DMSO control 3713
[23] = tested on: NCI/ADR-RES; assay: cells; conditions: Homo sapiens, 48 h; for GI50: read-out: Median Growth Inhibitory Concentration (GI50); for CC50: read-out: Median Lethal Concentration (LC50)
[24] = tested on: MCF-7; assay: cells; conditions: Homo sapiens, MCF7, 48 h; for GI50: read-out: Median Growth Inhibitory Concentration (GI50); for CC50: read-out: Median Lethal Concentration (LC50)
[25] = tested on: SNB-19; assay: cells; conditions: Homo sapiens, SNB-19, 48 h; for GI50: read-out: Median Growth Inhibitory Concentration (GI50); for CC50: read-out: Median Lethal Concentration (LC50)
[26] = tested on: MOLT-4; assay: cells; conditions: Homo sapiens, MOLT-4, 48 h; for GI50: read-out: Median Growth Inhibitory Concentration (GI50); for CC50: read-out: Median Lethal Concentration (LC50)
[27] = tested on: CCRF-CEM; assay: cells; conditions: Homo sapiens, 48 h; for GI50: read-out: Median Growth Inhibitory Concentration (GI50)
[28] = tested on: MDA-MB-231; assay: cells; conditions: Homo sapiens, MDA-MB-231, 48 h; for GI50: read-out: Median Growth Inhibitory Concentration (GI50); for CC50: read-out: Median Lethal Concentration (LC50)
[29] = tested on: 786-0; assay: cells; conditions: Homo sapiens, 786-0, 48 h; for GI50: read-out: Median Growth Inhibitory Concentration (GI50); for CC50: read-out: Median Lethal Concentration (LC50)
[30] = 5 μM, DMSO control 4197 (EF-25: 1045)
[31] = read-out: Median Lethal Concentration (LC50)

SMILES: O=C1C(=Cc2ccccc2O)CCCC1=Cc1ccccc1O [EF4, 2,6Bis(2-hydroxybenzylidene)cyclohexanone]
- GI50 compared with CISPLATIN, in words [1]: lower GI50 than the chemotherapeutic agent CISPLATIN for several cell types
- LC50 compared with CISPLATIN, in words [1]: lower LC50 than the chemotherapeutic agent CISPLATIN for several cell types
- GI50 [2]: 2.9 µM
- CC50 [2]: 57.8 µM
- GI50 [3]: 19 µM
- CC50 [3]: > 100 µM
- GI50 [4]: 1.6 µM
- CC50 [4]: 6.5 µM
- GI50 [5]: 3 µM
- CC50 [5]: 53.2 µM
- GI50 [6]: 2.3 µM
- CC50 [6]: 40.2 µM
- GI50 [7]: 0.5 µM
- CC50 [7]: 30.8 µM
- GI50 [8]: 2.1 µM
- CC50 [8]: 28.6 µM
- GI50 [9]: 2.3 µM
- CC50 [9]: 21.5 µM
- GI50 [10]: 1.6 µM
- CC50 [10]: 6.2 µM
- GI50 [11]: 3.3 µM
- CC50 [11]: 32.7 µM
- GI50 [12]: 1.7 µM
- CC50 [12]: 50.8 µM
- GI50 [13]: 2 µM
- CC50 [13]: 21.5 µM
- GI50 [14]: 3.1 µM
- CC50 [14]: > 100 µM
- GI50 [15]: 2.2 µM
- CC50 [15]: > 100 µM
- GI50 [16]: 2.9 µM
- CC50 [16]: > 100 µM
- GI50 [17]: 2.9 µM
- CC50 [17]: 33.8 µM
- GI50 [18]: 2.9 µM
- GI50 [19]: 3.7 µM
- CC50 [19]: 40.7 µM
- GI50 [20]: 1.7 µM
- CC50 [20]: 5.9 µM
- GI50 [21]: 2.2 µM
- activity at 5 µM [22]: 70%
- activity at 20 µM [22]: 0%
- VEGF ELISA ([22]; 5 μM): 2159 pg/ml/well
- VEGF [22, 30]: 2920 pg/mL
- VEGF ELISA ([22]; 20 μM): 199 pg/ml/well
- VEGF ([22]; 20 μM, DMSO control 4197): 0 pg/mL
- GI50 [23]: 2.7 µM
- CC50 [23]: > 100 µM
- GI50 [24]: 2.7 µM
- CC50 [24]: 44.1 µM
- GI50 [25]: 3.2 µM
- CC50 [25]: 42.3 µM
- GI50 [26]: 2.2 µM
- CC50 [26]: 69.5 µM
- GI50 [27]: 1.4 µM
- GI50 [28]: 3.5 µM
- CC50 [28]: > 100 µM
- GI50 [29]: 2.3 µM
- CC50 [29]: 15.9 µM

SMILES: O=C(C=Cc1ccc(F)cc1F)C=Cc1ccc(F)cc1F [EF9, 1,5-Bis(2,4-difluorophenyl)penta-1,4-dien-3-one]
- LC50 compared with CISPLATIN, in words [1]: lower LC50 than the chemotherapeutic agent CISPLATIN for several cell types
- GI50 [2]: 16 µM
- CC50 [2]: 62.1 µM
- GI50 [3]: 24.3 µM
- CC50 [3]: > 100 µM
- GI50 [4]: 2.3 µM
- CC50 [4]: 14.6 µM
- GI50 [5]: 13.7 µM
- CC50 [5]: > 100 µM
- GI50 [6]: 12.7 µM
- CC50 [6]: 60.9 µM
- GI50 [7]: 2.3 µM
- CC50 [7]: 17.9 µM
- GI50 [8]: 4.8 µM
- CC50 [8]: 41 µM
- GI50 [9]: 17.1 µM
- CC50 [9]: 62.3 µM
- GI50 [10]: 9.6 µM
- CC50 [10]: 49.5 µM
- GI50 [11]: 16.5 µM
- CC50 [11]: 54.8 µM
- GI50 [12]: 4.4 µM
- CC50 [12]: 56.1 µM
- GI50 [13]: 11.2 µM
- CC50 [13]: 48.8 µM
- GI50 [14]: 15 µM
- CC50 [14]: 93.4 µM
- GI50 [15]: 4.9 µM
- CC50 [15]: 64.7 µM
- GI50 [16]: 13.4 µM
- CC50 [16]: 57.1 µM
- GI50 [17]: 18.6 µM
- CC50 [17]: 61.1 µM
- GI50 [18]: 16.6 µM
- CC50 [18, 31]: 60.7 µM
- GI50 [19]: 14.1 µM
- CC50 [19]: 52.1 µM
- GI50 [20]: 3.3 µM
- CC50 [20]: 32.2 µM
- GI50 [21]: 3.4 µM
- CC50 [21, 31]: 67.6 µM
- activity at 5 µM [22]: 46%
- activity at 20 µM [22]: 14%
- VEGF ELISA ([22]; 5 μM): 1868 pg/ml/well
- VEGF [22, 30]: 1925 pg/mL
- VEGF ELISA ([22]; 20 μM): 705 pg/ml/well
- VEGF ([22]; 20 μM, DMSO control 4197): 595 pg/mL
- GI50 [23]: 30.7 µM
- CC50 [23]: > 100 µM
- GI50 [24]: 3 µM
- CC50 [24]: 42.2 µM
- GI50 [25]: 14.7 µM
- CC50 [25]: 58.8 µM
- GI50 [26]: 9.3 µM
- CC50 [26]: > 100 µM
- GI50 [27]: 3.1 µM
- CC50 [27, 31]: > 100 µM
- GI50 [28]: 14.1 µM
- CC50 [28]: 57.7 µM
- GI50 [29]: 3.5 µM
- CC50 [29]: 49.6 µM
